Test system: p70S6K and 4E-BP1 phosphorylation (mTOR substrates)
Assay: Immunoblot of p70S6K and 4E-BP1 phosphorylation in VSMC
Assay type: cell-based, mouse
Description: Western blot analysis: The cells were plated in a 100-mm culture dish in DMEM supplemented with 20% FBS for 24 h at 37° C., followed by serum starvation for 48 h. Cells were then treated with different reagents for 30 min. Cells were subsequently lysed on ice for 30 min in RIPA buffer [150 mM NaCl, 100 mM Tris (pH 8.0), 1% Triton X-100, 1% deoxycholic acid, 0.1% SDS, 5 mM EDTA, and 10 mM NaF] supplemented with 1 mM sodium vanadate, 2 mM leupeptin, 2 mM aprotinin, 1 mM phenylmethylsulfonyl fluoride (PMSF), 1 mM DTT, and 2 mM pepstatin A. After centrifugation at 14,000 rpm for 30 min, the supernatant was harvested as the total cellular protein extract, and stored at −70° C. The protein concentration was determined using Bio-Rad protein assay reagent (Richmond, Calif.). The total cellular protein extracts were separated by SDS-polyacrylamide gel electrophoresis (SDS-PAGE) and transferred to nitrocellulose membrane in 20 mM Tris-HCl (pH 8.0) containing 150 mM glycine and 20% (v/v) methanol.
Blots were washed three times in PBS buffer, followed by incubation with the appropriate HRP-linked IgG. The specific proteins in the blots were visualized using an enhanced chemiluminescence reagent (NEN, Boston, Mass.).
Starved murine VSMCs were incubated for 20 min with leptin (100 ng/ml) or 10% FBS, in the absence or presence of rapamycin (100 nmol/L).
VSMC were plated on 100-mm dishes, serum starved for 72 h in DMEM containing 0.1% FBS, and stimulated with 0.6 or 6 nM (10 or 100 ng/ml) leptin. Extracts were prepared by brief sonication in HKM buffer [40 mM HEPES-KOH (pH 7.6), 7.5 mM MgCl2, 0.5 mM DTT] or, in the case of Akt phosphorylation studies, by lysing cells on ice for 30 min in RIPA buffer. 70 μg of protein per sample were subjected to immunoblotting by standards protocols. Imaging and densitometry were performed on an Odyssey infrared system (Li-Cor, Lincoln, Neb.).

Leptin: recombinant leptin; hormone derived from adipose tissue, encoded by the Ob gene
phosphorylation of S6K and 4EBP-1 (Example 1, leptin 10 ng/mL, data not shown): stimulated the phosphorylation
phosphorylation of p70S6K and 4E-BP1 (Example 2, leptin 100 ng/ml): up-phosphorylated
S6K phosphorylation (Example 5, leptin 0.6 nM, data not shown): stimulated S6K phosphorylation, albeit less robustly
phosphorylation of S6K (Example 5, leptin 6 nM): stimulated the phosphorylation

Source: US20090274739A1, “METHODS AND COMPOSITIONS FOR TREATING NEOINTIMAL HYPERPLASIA” (THE TRUSTEES OF COLUMBIA UNIVERSITY IN THE CITY OF NEW YORK, priority 2006, published 2009)
